# Columns and labels:
# [1] = system: Eotaxin-3 (CCL26) release in human whole blood stimulated with IL-4; assay: Human Whole Blood Eotaxin-3 Assay (IL-4 stimulated, inhibition of eotaxin-3 release); format: cell-based; conditions: EC50 provided for test compounds with >80% Emax, geometric mean across assay runs and batches
# Method: This was a human whole blood assay using recombinant human Interleukin 4 to stimulate the blood and measuring the ability of the test compounds to inhibit eotaxin-3 release. The biological activities of the test compounds have been tested in human whole blood stimulated with IL-4 measuring Eotaxin-3 release. The test compounds were added to 384 well clear flat-bottom plate in a 4-fold serial dilution in triplicates using a liquid handler. Human whole blood stabilized in lithium-heparin tubes was added in a volume of 65 uL per well, resulting in a final DMSO concentration of 0.5%. The plate is incubated for 2 h at 37° C. under 5% CO2/95% air. Subsequently, 5 μL of recombinant human IL-4 (R&D Systems, cat #204-ILB) was added to the wells to a final concentration of 400 pM. The plate was incubated for 48 h at 37° C. under 5% CO2/95% air. The plate was spun down for 10 minutes at 500×g and 20 uL supernatant was harvested and transferred to a 384 well v-bottom plate using a liquid handler and stored at −20° C. until further analysis. 10 uL supernatant was used to measure the level of Eotaxin-3 (CCL26) using Human Eotaxin-3 MSD kit from Mesocsale (Cat #K251UEK-4). The assay was performed according to the manufacture instructions.
# The data from the human whole blood eotaxin-3 assay is shown below for Examples 2q11, 2110, and 2c49 (where the effect in % is plotted against the test concentration in M on a log-scale).
# [2] = biological target: T1, STAT6 (endogenous, HiBiT-tagged) in HeLa LgBiT clone 4.14 cells (Homo sapiens, UniProt P42226); assay: STAT6 Degrader Assay (HiBiT based, HeLa LgBiT clone 4.14 cells, luminescence, DC50); format: cell-based; conditions: DC50 provided for test compounds with >80% Emax, geometric mean, read-out: STAT6 degradation DC50
# T1 construct: These cells express endogenous STAT6; host or cells: HeLa LgBiT clone 4.14
# T1 sequence (P42226 1-847): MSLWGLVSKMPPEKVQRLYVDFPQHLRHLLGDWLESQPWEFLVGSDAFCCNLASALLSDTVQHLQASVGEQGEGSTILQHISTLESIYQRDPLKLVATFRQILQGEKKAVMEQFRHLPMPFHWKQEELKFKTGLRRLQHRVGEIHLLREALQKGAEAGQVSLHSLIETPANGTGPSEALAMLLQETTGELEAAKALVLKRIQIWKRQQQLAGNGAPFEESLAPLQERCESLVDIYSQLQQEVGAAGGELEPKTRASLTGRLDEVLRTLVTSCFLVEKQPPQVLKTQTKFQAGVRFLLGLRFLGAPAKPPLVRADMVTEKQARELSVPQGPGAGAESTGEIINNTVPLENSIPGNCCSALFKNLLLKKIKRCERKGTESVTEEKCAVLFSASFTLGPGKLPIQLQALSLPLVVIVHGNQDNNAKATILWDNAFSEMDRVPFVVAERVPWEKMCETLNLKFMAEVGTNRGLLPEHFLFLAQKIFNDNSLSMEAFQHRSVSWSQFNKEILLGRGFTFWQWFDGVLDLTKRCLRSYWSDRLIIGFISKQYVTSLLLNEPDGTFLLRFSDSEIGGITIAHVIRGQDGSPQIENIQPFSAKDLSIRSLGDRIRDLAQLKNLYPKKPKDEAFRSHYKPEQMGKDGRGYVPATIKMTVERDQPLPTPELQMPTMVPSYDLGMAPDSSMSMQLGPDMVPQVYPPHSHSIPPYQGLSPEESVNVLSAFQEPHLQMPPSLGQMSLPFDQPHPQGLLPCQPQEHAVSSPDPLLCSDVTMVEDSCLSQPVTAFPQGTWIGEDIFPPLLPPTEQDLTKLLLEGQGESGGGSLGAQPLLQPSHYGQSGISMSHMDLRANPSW
# Procedure, shortened: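 HeLa LgBiT clone 4.14 cells carry CRISPR-inserted HiBiT on endogenous STAT6; 5000 cells/well were exposed to compound for 4-24 h at 37 °C, 5% CO2. Nano-Glo substrate added for 0.5 h; luminescence reflects remaining STAT6, with terfenadine ([…]) wells defining 100% degradation.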
SMILES,EC50 ([1]; Homo sapiens) [nM],DC50 [2] [nM],EC50 [1] [nM]
"C[C@@H](c1cc2c(-c3ccc(N)nc3)ccnc2n1C)N1CCC(c2ccc(C(=O)N3CCC(CN4CCN(c5ccc(NC6CCC(=O)NC6=O)cc5F)CC4C(F)(F)F)CC3)cc2)CC1 (mixture of isomers) [Example 2f9, 3-((4-(4-((1-(4-(1-((S)-1-(4-(6-aminopyridin-3-yl)-1-methyl-1H-pyrrolo[2,3-b]pyridin-2-yl)-ethyl)piperidin-4-yl)benzoyl)piperidin-4-yl)methyl)-3-(trifluoromethyl)-piperazin-1-yl)-3-fluorophenyl)-amino)piperidine-2,6-dione]",249,69.2,
"C[C@@H](c1cc2c(-c3ccc(N)nc3)ccnc2n1C)N1CCC(c2ccc(C(=O)N3CCC(CN4CCN(c5ccc(NC6CCC(=O)NC6=O)cc5F)C[C@H]4C(F)(F)F)CC3)cc2)CC1 (single isomer, unassigned) [Example 2f10]",385,,
"C[C@@H](c1cc2c(-c3ccc(N)nc3)ccnc2n1C)N1CCC(c2ccc(C(=O)N3CCn4nc(CN5CCC(c6ccc(N[C@@H]7CCC(=O)NC7=O)cc6F)CC5)cc4C3)cc2)CC1 (single isomer, unassigned) [Example 2q10]",3.2,1,
"CNc1ccc(-c2ccnc3c2cc([C@H](C)N2CC=C(c4c(C)cc(C(=O)N5CCC(CN6CCN(c7ccc(NC8CCC(=O)NC8=O)cc7F)C[C@@H]6C)CC5)cc4F)CC2)n3C)cn1 (stereo partly drawn) [Example 2c47, 3-((3-fluoro-4-((S)-4-((1-(3-fluoro-5-methyl-4-(1-((S)-1-(1-methyl-4-(6-(methylamino)pyridin-3-yl)-1H-pyrrolo[2,3-b]pyridin-2-yl)ethyl)-1,2,3,6-tetrahydropyridin-4-yl)benzoyl)piperidin-4-yl)methyl)-3-methylpiperazin-1-yl)phenyl)amino)piperidine-2,6-dione]",197,,
"CNc1ccc(-c2ccnc3c2cc([C@H](C)N2CC=C(c4c(C)cc(C(=O)N5CCn6nc(CN7CCC(c8ccc(NC9CCC(=O)NC9=O)c(OC)c8)CC7)cc6C5)cc4F)CC2)n3C)cn1 (stereo partly drawn) [Example 2c49, 3-((4-(1-((5-(3-fluoro-5-methyl-4-(1-((S)-1-(1-methyl-4-(6-(methylamino)pyridin-3-yl)-1H-pyrrolo[2,3-b]pyridin-2-yl)ethyl)-1,2,3,6-tetrahydropyridin-4-yl)benzoyl)-4,5,6,7-tetrahydropyrazolo[1,5-a]pyrazin-2-yl)methyl)piperidin-4-yl)-2-methoxyphenyl)amino)piperidine-2,6-dione]",3,,
"C[C@H]1CN(c2ncc(NC3CCC(=O)NC3=O)cc2F)CCN1CC1CCN(C(=O)c2ccc(C3CCN([C@@H](C)c4cc5c(-c6ccc(N)nc6)ccnc5n4C)CC3)cc2)CC1 (stereo partly drawn) [Example 2c55, 3-((6-((S)-4-((1-(4-(1-((S)-1-(4-(6-aminopyridin-3-yl)-1-methyl-1H-pyrrolo[2,3-b]pyridin-2-yl)ethyl)piperidin-4-yl)benzoyl)piperidin-4-yl)methyl)-3-methylpiperazin-1-yl)-5-fluoropyridin-3-yl)amino)piperidine-2,6-dione]",247,,
"COCc1nc2cc(-c3ccnc4c3cc(CN3CCC(c5ccc(C(=O)N6CCn7nc(CN8CCC(c9ncc(NC%10CCC(=O)NC%10=O)cc9F)CC8)cc7C6)cc5)CC3)n4C)ccc2[nH]1 (stereo not shown) [Example 2q8, 3-((5-fluoro-6-(1-((5-(4-(1-((4-(2-(methoxymethyl)-1H-benzo[d]imidazol-5-yl)-1-methyl-1H-pyrrolo[2,3-b]pyridin-2-yl)methyl)piperidin-4-yl)benzoyl)-4,5,6,7-tetrahydropyrazolo[1,5-a]pyrazin-2-yl)methyl)piperidin-4-yl)pyridin-3-yl)amino)piperidine-2,6-dione]",25.1,,
"C[C@@H](c1cc2c(-c3ccc(N)nc3)ccnc2n1C)N1CCC(c2ccc(C(=O)N3CCn4nc(CN5CCN(c6ccc(NC7CCC(=O)NC7=O)cc6F)CC5)cc4C3)cc2)CC1 (stereo partly drawn) [Example 2q15, 3-((4-(4-((5-(4-(1-((S)-1-(4-(6-aminopyridin-3-yl)-1-methyl-1H-pyrrolo[2,3-b]pyridin-2-yl)-ethyl)piperidin-4-yl)benzoyl)-4,5,6,7-tetrahydropyrazolo[1,5-a]pyrazin-2-yl)methyl)piperazin-1-yl)-3-fluoro-phenyl)amino)piperidine-2,6-dione]",37.8,,

# The remaining lines, values ahead:
EC50 ([1]; Homo sapiens) [nM],DC50 [2] [nM],EC50 [1] [nM],SMILES
109,10.5,,"C[C@@H](c1cc2c(-c3ccc(N)nc3)ccnc2n1C)N1CCC(c2ccc(C(=O)N3CCC(CN4CCN(c5ccc(N[C@H]6CCC(=O)NC6=O)cc5F)CC4)CC3)cc2)CC1 (single isomer, unassigned) [Example 2c19]"
,9.6,82.8,"C[C@@H](c1cc2c(-c3ccc(N)nc3)ccnc2n1C)N1CCC(c2ccc(C(=O)N3CCC(CN4CCN(c5ccc(N[C@H]6CCC(=O)NC6=O)cc5F)CC4)CC3)cc2)CC1 (single isomer, unassigned) [Example 2c20]"
30.7,3.9,,"COCc1nc2cc(-c3ccnc4c3cc([C@H](C)N3CCC(c5ccc(C(=O)N6CCC(CN7CCN(c8ccc(N[C@@H]9CCC(=O)NC9=O)cc8F)CC7)CC6)cc5)CC3)n4C)ccc2[nH]1 (single isomer, unassigned) [Example 2c52]"
30.9,4.7,,"COCc1nc2cc(-c3ccnc4c3cc([C@H](C)N3CCC(c5ccc(C(=O)N6CCC(CN7CCN(c8ccc(N[C@H]9CCC(=O)NC9=O)cc8F)CC7)CC6)cc5)CC3)n4C)ccc2[nH]1 (single isomer, unassigned) [Example 2c53]"
406,,,"C[C@@H](c1cc2c(-c3ccc(N)nc3)ccnc2n1C)N1CCC(c2ccc(C(=O)N3CCC(CN4CCN(c5ccc(NC6CCC(=O)NC6=O)cc5F)C[C@@H]4C(F)(F)F)CC3)cc2)CC1 (single isomer, unassigned) [Example 2f11]"
19.7,4.1,,"COCc1nc2cc(-c3ccnc4c3cc([C@H](C)N3CCC(c5ccc(C(=O)N6CCC(CN7CCN(c8ccc(N[C@H]9CCC(=O)NC9=O)cc8F)C[C@H]7C)CC6)cc5)CC3)n4C)ccc2[nH]1 (single isomer, unassigned) [Example 2f12]"
15.6,2.5,,"COCc1nc2cc(-c3ccnc4c3cc([C@H](C)N3CCC(c5ccc(C(=O)N6CCC(CN7CCN(c8ccc(N[C@@H]9CCC(=O)NC9=O)cc8F)C[C@H]7C)CC6)cc5)CC3)n4C)ccc2[nH]1 (single isomer, unassigned) [Example 2f13]"
112,,,"COc1cc(N2CCN(CC3CCN(C(=O)c4ccc(C5CCN([C@@H](C)c6cc7c(-c8ccc(N)nc8)ccnc7n6C)CC5)cc4)CC3)CC2)ccc1NC1CCC(=O)NC1=O (stereo partly drawn) [Example 2c40, 3-((4-(4-((1-(4-(1-((S)-1-(4-(6-aminopyridin-3-yl)-1-methyl-1H-pyrrolo[2,3-b]pyridin-2-yl)ethyl)piperidin-4-yl)benzoyl)piperidin-4-yl)methyl)piperazin-1-yl)-2-methoxyphenyl)amino)piperidine-2,6-dione]"
265,,,"C[C@H]1CN(c2ccc(NC3CCC(=O)NC3=O)cc2F)CCN1CC1CCN(C(=O)c2ccc(C3CCN([C@@H](C)c4cc5c(-c6ccc(N)nc6)ccnc5n4C)CC3)cc2)CC1 (stereo partly drawn) [Example 2c54, 3-((4-((S)-4-((1-(4-(1-((S)-1-(4-(6-aminopyridin-3-yl)-1-methyl-1H-pyrrolo[2,3-b]pyridin-2-yl)ethyl)piperidin-4-yl)benzoyl)piperidin-4-yl)methyl)-3-methylpiperazin-1-yl)-3-fluorophenyl)amino)piperidine-2,6-dione]"

# — US20260014147A1, “STAT6 DEGRADERS” (Gilead Sciences, Inc., priority 2024, published 2026)
